According to PubChem BioAssay (NCI):
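48-hour exposure; five concentrations; linearly interpolated endpoints. TGI is the concentration that stops growth completely.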

How the values were obtained:
Test in all cases: growth of human tumour cells (NCI), 48 h
CCRF-CEM leukemia = system: CCRF-CEM leukemia
CAKI-1 renal = system: CAKI-1 renal
TK-10 renal = system: TK-10 renal
HOP-18 NSCLC = system: HOP-18 NSCLC
NCI-H23 lung = system: NCI-H23 lung
SW-620 colon = system: SW-620 colon
SR leukemia = system: SR leukemia
SK-MEL-5 melanoma = system: SK-MEL-5 melanoma
786-0 renal = system: 786-0 renal
NCI-H226 lung = system: NCI-H226 lung
KM12 colon = system: KM12 colon
SF-295 CNS = system: SF-295 CNS
NCI-H522 lung = system: NCI-H522 lung
ACHN renal = system: ACHN renal
KM20L2 colon = system: KM20L2 colon
SN12C renal = system: SN12C renal
LOX IMVI melanoma = system: LOX IMVI melanoma
OVCAR-5 ovarian = system: OVCAR-5 ovarian
M14 melanoma = system: M14 melanoma
K-562 leukemia = system: K-562 leukemia
SNB-78 CNS = system: SNB-78 CNS
A498 renal = system: A498 renal
MOLT-4 leukemia = system: MOLT-4 leukemia
HT29 colon = system: HT29 colon
COLO 205 colon = system: COLO 205 colon
SF-539 CNS = system: SF-539 CNS
MALME-3M melanoma = system: MALME-3M melanoma
SK-MEL-2 melanoma = system: SK-MEL-2 melanoma
OVCAR-8 ovarian = system: OVCAR-8 ovarian
OVCAR-4 ovarian = system: OVCAR-4 ovarian
SK-MEL-28 melanoma = system: SK-MEL-28 melanoma
UACC-62 melanoma = system: UACC-62 melanoma
RXF 393 renal = system: RXF 393 renal
OVCAR-3 ovarian = system: OVCAR-3 ovarian
A549 NSCLC = system: A549 NSCLC
SK-OV-3 ovarian = system: SK-OV-3 ovarian
SNB-19 CNS = system: SNB-19 CNS
SF-268 CNS = system: SF-268 CNS
RPMI-8226 leukemia = system: RPMI-8226 leukemia
HCC-2998 colon = system: HCC-2998 colon
HOP-62 NSCLC = system: HOP-62 NSCLC
U251 CNS = system: U251 CNS
EKVX NSCLC = system: EKVX NSCLC
DMS 273 small cell lung = system: DMS 273 small cell lung
IGROV1 ovarian = system: IGROV1 ovarian
HL-60(TB) leukemia = system: HL-60(TB) leukemia
HCT-15 colon = system: HCT-15 colon
NCI-H460 lung = system: NCI-H460 lung
UACC-257 melanoma = system: UACC-257 melanoma
LXFL 529 NSCLC = system: LXFL 529 NSCLC
M19-MEL melanoma = system: M19-MEL melanoma
HCT-116 colon = system: HCT-116 colon
HOP-92 NSCLC = system: HOP-92 NSCLC
UO-31 renal = system: UO-31 renal
DLD-1 colon = system: DLD-1 colon
DMS 114 small cell lung = system: DMS 114 small cell lung
XF 498 CNS = system: XF 498 CNS

## CCCCCCCCC(=O)NCCCNCCCNC(=O)CCCCCCCC
CCRF-CEM leukemia
  TGI: 14.9 µM
CAKI-1 renal
  TGI: 27.7 µM
TK-10 renal
  TGI: 30.2 µM
HOP-18 NSCLC
  TGI: 26.6 µM
NCI-H23 lung
  TGI: 29.9 µM
SW-620 colon
  TGI: 7.3 µM
SR leukemia
  TGI: 5.81 µM
SK-MEL-5 melanoma
  TGI: 14.1 µM
786-0 renal
  TGI: 3.52 µM
NCI-H226 lung
  TGI: 35.1 µM
KM12 colon
  TGI: 3.48 µM
SF-295 CNS
  TGI: 14.2 µM
NCI-H522 lung
  TGI: 18.8 µM
ACHN renal
  TGI: 16.1 µM
KM20L2 colon
  TGI: 6.31 µM
SN12C renal
  TGI: 16.3 µM
LOX IMVI melanoma
  TGI: 3.19 µM
OVCAR-5 ovarian
  TGI: 28.5 µM
M14 melanoma
  TGI: 4.15 µM
K-562 leukemia
  TGI: 4.55 µM
SNB-78 CNS
  TGI: 26 µM
A498 renal
  TGI: 32.1 µM
MOLT-4 leukemia
  TGI: 10.4 µM
HT29 colon
  TGI: 7.5 µM
COLO 205 colon
  TGI: 9.57 µM
SF-539 CNS
  TGI: 29.9 µM
MALME-3M melanoma
  TGI: 26.6 µM
SK-MEL-2 melanoma
  TGI: 9.05 µM
OVCAR-8 ovarian
  TGI: 32.9 µM
OVCAR-4 ovarian
  TGI: 29.9 µM
SK-MEL-28 melanoma
  TGI: 25.6 µM
UACC-62 melanoma
  TGI: 12.3 µM
RXF 393 renal
  TGI: 21.7 µM
OVCAR-3 ovarian
  TGI: 30.5 µM
A549 NSCLC
  TGI: 29 µM
SK-OV-3 ovarian
  TGI: 29.2 µM
SNB-19 CNS
  TGI: 35.9 µM
SF-268 CNS
  TGI: 26 µM
RPMI-8226 leukemia
  TGI: 11 µM
HCC-2998 colon
  TGI: 6.67 µM
HOP-62 NSCLC
  TGI: 27.9 µM
U251 CNS
  TGI: 8.92 µM
EKVX NSCLC
  TGI: 30.1 µM
DMS 273 small cell lung
  TGI: 6.03 µM
IGROV1 ovarian
  TGI: 10.6 µM
HL-60(TB) leukemia
  TGI: 3.77 µM
HCT-15 colon
  TGI: 28.2 µM
NCI-H460 lung
  TGI: 6.57 µM
UACC-257 melanoma
  TGI: 19.9 µM
LXFL 529 NSCLC
  TGI: 7.79 µM
M19-MEL melanoma
  TGI: 8.38 µM
HCT-116 colon
  TGI: 9.54 µM
HOP-92 NSCLC
  TGI: 14.1 µM
UO-31 renal
  TGI: 27.6 µM
DLD-1 colon
  TGI: 7.7 µM
DMS 114 small cell lung
  TGI: 8.79 µM
XF 498 CNS
  TGI: 9.22 µM
